In a compilation of properties of binary mixtures (doi:10.1016/j.molliq.2022.119944):

Test: xn = mol fraction of the nth substance listed
Conditions: 101.3 kPa

C=Cn1cc[n+](CCCC)c1.NCC(=O)[O-] + O
Conditions	electrical conductivity [S/m]	viscosity [mPa·s]
293.15 K, x1 = 0.1	–	7.17
293.15 K, x1 = 0.3	–	23.93
293.15 K, x1 = 0.7	–	403
293.15 K, x1 = 1	–	11700
303.15 K, x1 = 0.1	1.04	7.07
303.15 K, x1 = 0.3	1.75	19.67
303.15 K, x1 = 0.7	1.58	282
303.15 K, x1 = 0.9	0.412	1068
308.15 K, x1 = 0.3	1.94	–
308.15 K, x1 = 0.5	2.95	–
313.15 K, x1 = 0.1	1.19	6.73
313.15 K, x1 = 0.3	2.16	14.44
313.15 K, x1 = 0.5	3.34	33.65
313.15 K, x1 = 0.7	2.31	199
313.15 K, x1 = 0.9	0.653	730
313.15 K, x1 = 1	0.013	5900
318.15 K, x1 = 0.1	1.29	–
318.15 K, x1 = 0.3	2.44	–
318.15 K, x1 = 0.7	2.87	–
318.15 K, x1 = 0.9	0.89	–
318.15 K, x1 = 1	0.018	–
323.15 K, x1 = 0.1	1.35	6.71
323.15 K, x1 = 0.3	2.63	11.28
323.15 K, x1 = 0.5	4.09	28.63
323.15 K, x1 = 0.7	3.25	168
323.15 K, x1 = 0.9	1.2	570
323.15 K, x1 = 1	0.021	3100
333.15 K, x1 = 0.1	–	5.87
333.15 K, x1 = 0.5	–	28.1
333.15 K, x1 = 0.7	–	156
333.15 K, x1 = 0.9	–	540
343.15 K, x1 = 0.1	–	5.29
343.15 K, x1 = 0.5	–	22.04
343.15 K, x1 = 0.7	–	132
343.15 K, x1 = 0.9	–	540
353.15 K, x1 = 0.1	–	5.08
353.15 K, x1 = 0.3	–	9.83
353.15 K, x1 = 0.7	–	104.8

C=C[n+]1ccn(CCCC)c1.NCCCC[C@H](N)C(=O)[O-] + O
Conditions	electrical conductivity [S/m]	viscosity [mPa·s]
293.15 K, x1 = 0.1	–	3.29
293.15 K, x1 = 0.7	–	95.3
303.15 K, x1 = 0.1	1.99	2.85
303.15 K, x1 = 0.3	2.61	5.21
303.15 K, x1 = 0.7	1.91	74.7
308.15 K, x1 = 0.3	2.78	–
308.15 K, x1 = 0.5	3.12	–
308.15 K, x1 = 0.7	2.3	–
308.15 K, x1 = 0.9	1.23	–
308.15 K, x1 = 1	0.154	–
313.15 K, x1 = 0.1	2.36	2.38
313.15 K, x1 = 0.7	2.54	55.38
313.15 K, x1 = 0.9	1.34	1167
313.15 K, x1 = 1	0.176	3700
318.15 K, x1 = 0.1	2.51	–
318.15 K, x1 = 0.3	3.29	–
318.15 K, x1 = 0.5	3.6	–
318.15 K, x1 = 0.7	2.95	–
318.15 K, x1 = 0.9	1.45	–
318.15 K, x1 = 1	0.195	–
323.15 K, x1 = 0.1	2.78	1.97
323.15 K, x1 = 0.3	3.56	3.57
323.15 K, x1 = 0.7	3.28	42.7
323.15 K, x1 = 0.9	1.62	950
323.15 K, x1 = 1	0.214	1961
333.15 K, x1 = 0.1	–	1.58
333.15 K, x1 = 0.3	–	2.36
333.15 K, x1 = 0.5	–	36.92
333.15 K, x1 = 0.7	–	36.62
333.15 K, x1 = 1	–	1174
343.15 K, x1 = 0.3	–	2.2
343.15 K, x1 = 0.7	–	33.98
343.15 K, x1 = 1	–	780
353.15 K, x1 = 0.5	–	36.44
353.15 K, x1 = 0.7	–	33.87
353.15 K, x1 = 0.9	–	185
353.15 K, x1 = 1	–	560

C=C[n+]1ccn(CCCC)c1.N[C@@H](Cc1c[nH]cn1)C(=O)[O-] + O
Conditions	electrical conductivity [S/m]	viscosity [mPa·s]
293.15 K, x1 = 0.1	–	2.55
293.15 K, x1 = 0.3	–	10.63
293.15 K, x1 = 0.5	–	26.91
293.15 K, x1 = 0.7	–	92.2
293.15 K, x1 = 0.9	–	1475
293.15 K, x1 = 1	–	8300
303.15 K, x1 = 0.1	2.65	2.35
303.15 K, x1 = 0.5	3.61	21.73
303.15 K, x1 = 0.7	2.67	59.5
303.15 K, x1 = 1	0.07	5300
308.15 K, x1 = 0.1	2.94	–
308.15 K, x1 = 0.3	3.79	–
308.15 K, x1 = 0.5	3.85	–
308.15 K, x1 = 0.7	2.95	–
308.15 K, x1 = 0.9	0.75	–
308.15 K, x1 = 1	0.089	–
313.15 K, x1 = 0.1	3.12	2.08
313.15 K, x1 = 0.3	4.12	5.88
313.15 K, x1 = 0.5	4.08	17.2
313.15 K, x1 = 0.7	3.27	43.6
313.15 K, x1 = 0.9	0.99	1026
313.15 K, x1 = 1	0.123	2700
318.15 K, x1 = 0.1	3.32	–
318.15 K, x1 = 0.3	4.38	–
318.15 K, x1 = 0.5	4.37	–
318.15 K, x1 = 0.7	3.6	–
318.15 K, x1 = 0.9	1.27	–
318.15 K, x1 = 1	0.162	–
323.15 K, x1 = 0.1	3.58	1.7
323.15 K, x1 = 0.3	4.7	4.81
323.15 K, x1 = 0.5	4.58	14.68
323.15 K, x1 = 0.7	3.83	33.63
323.15 K, x1 = 0.9	1.64	930
333.15 K, x1 = 0.1	–	1.46
333.15 K, x1 = 0.5	–	14.17
333.15 K, x1 = 0.7	–	29.24
333.15 K, x1 = 0.9	–	550
333.15 K, x1 = 1	–	810
343.15 K, x1 = 0.1	–	1.04
343.15 K, x1 = 0.3	–	4
343.15 K, x1 = 0.5	–	13.4
343.15 K, x1 = 0.9	–	327
343.15 K, x1 = 1	–	500
353.15 K, x1 = 0.1	–	0.95
353.15 K, x1 = 0.3	–	3.68
353.15 K, x1 = 0.7	–	29
353.15 K, x1 = 0.9	–	116
353.15 K, x1 = 1	–	331

C=C[n+]1ccn(CCCC)c1.N[C@@H](CO)C(=O)[O-] + O
Conditions	electrical conductivity [S/m]	viscosity [mPa·s]
293.15 K, x1 = 0.1	–	6.68
293.15 K, x1 = 0.5	–	95.4
293.15 K, x1 = 0.7	–	720
293.15 K, x1 = 0.9	–	2700
293.15 K, x1 = 1	–	18000
303.15 K, x1 = 0.3	2.86	13.51
303.15 K, x1 = 0.5	3.18	71.2
303.15 K, x1 = 0.7	2.61	490
303.15 K, x1 = 1	0.006	13600
308.15 K, x1 = 0.1	1.46	–
308.15 K, x1 = 0.3	3.08	–
308.15 K, x1 = 0.5	3.44	–
308.15 K, x1 = 0.7	2.84	–
308.15 K, x1 = 1	0.007	–
313.15 K, x1 = 0.1	1.61	5.94
313.15 K, x1 = 0.3	3.31	10.76
313.15 K, x1 = 0.5	3.75	54.6
313.15 K, x1 = 0.7	3.19	446
313.15 K, x1 = 0.9	1.1	1159
313.15 K, x1 = 1	0.01	9100
318.15 K, x1 = 0.1	1.78	–
318.15 K, x1 = 0.3	3.65	–
318.15 K, x1 = 0.5	4.05	–
318.15 K, x1 = 0.7	3.43	–
318.15 K, x1 = 0.9	1.42	–
318.15 K, x1 = 1	0.013	–
323.15 K, x1 = 0.1	1.9	4.84
323.15 K, x1 = 0.3	3.9	8.81
323.15 K, x1 = 0.5	4.46	44.4
323.15 K, x1 = 0.7	3.82	400
323.15 K, x1 = 0.9	1.69	820
333.15 K, x1 = 0.1	–	4.82
333.15 K, x1 = 0.3	–	7.96
333.15 K, x1 = 0.7	–	396
333.15 K, x1 = 0.9	–	670
333.15 K, x1 = 1	–	2800
343.15 K, x1 = 0.1	–	4.57
343.15 K, x1 = 0.3	–	7.27
343.15 K, x1 = 0.5	–	37.75
343.15 K, x1 = 0.7	–	387
343.15 K, x1 = 0.9	–	610
353.15 K, x1 = 0.3	–	7.11
353.15 K, x1 = 0.7	–	385
353.15 K, x1 = 0.9	–	540
